Where a name gives a salt, the structure may show the parent alone.
Legend:
IL-10 production = assay: Effect on IL-10 production in mice (in vivo), LPS-induced; details: serum IL-10 90 min after LPS 500 μg/kg i.p.; test compound orally 30 min before LPS; ratio relative to test compound non-administration group
Procedure: (§1) Since the TNF-α concentration in serum reaches a peak at 90 min after LPS administration, the TNF-α concentration in the serum at this point was measured using FACTOR TEST mTNF-α (manufactured by Genzyme) and the IL-10 concentration at the same point of time was also measured using Murine IL-10 ELISA Kit (manufactured by Endogen). […] The effect of the test compound on the TNF-α production and IL-10 production was calculated by the following formula as the ratio relative to the test compound non-administration group.

TNF-α production = assay: Effect on TNF-α production in mice (in vivo), LPS-induced; details: serum TNF-α 90 min after LPS 500 μg/kg i.p.; test compound orally 30 min before LPS; ratio relative to test compound non-administration group
Procedure: as §1

SMILES	melting point	IL-10 production (%) (IL-10 production)	TNF-α production (%) (TNF-α production)
CC(=O)NC(C)c1ccc(CN2CCN(c3ccccc3)CC2)cc1 (centres unmarked) [Example 58, N-(1-(4-((4-Phenylpiperazin-1-yl)methyl)phenyl)ethyl)acetamide Dihydrochloride 1/4 Hydrate]		499%	19%
CC(=O)NC1(c2ccc(C(C)N3CCN(c4ccc(F)cc4)CC3)cc2)CC1 (centres unmarked) [Example 67, N-(1-(4-(1-(4-(4-Fluorophenyl)piperazin-1-yl)ethyl)phenyl)cyclopropyl)acetamide]	149 to 150 °C		
O=CNCc1ccc(CN2CCN(c3ncccn3)CC2)cc1 [Example 76, N-(4-((4-(Pyrimidin-2-yl)piperazin-1-yl)methyl)phenylmethyl)formamide]	97 to 98 °C		
CC(=O)NCc1ccc(CN2CCN(c3nccs3)CC2)cc1 [Example 81, N-(4-((4-(Thiazol-2-yl)piperazin-1-yl)methyl)phenylmethyl)acetamide Hydrochloride 1/2 Hydrate]		1035%	11%
CC(=O)NCc1ccc(CN2CCN(c3ccncc3)CC2)cc1 [Example 84, N-(4-((4-(Pyridin-4-yl)piperazin-1-yl)methyl)phenylmethyl)acetamide]	164 to 166 °C		
CC(=O)NCc1ccc(CN2CCN(c3cnccn3)CC2)cc1 [Example 87, N-(4-((4-(Pyrazin-2-yl)piperazin-1-yl)methyl)phenylmethyl)acetamide]	118 to 119 °C		
CC(=O)NCc1ccc(CN2CCN(c3ncc([N+](=O)[O-])s3)CC2)cc1 [Example 88, N-(4-((4-(5-Nitrothiazol-2-yl)piperazin-1-yl)methyl)phenylmethyl)acetamide]	151 to 152 °C		
CC(=O)NCc1ccc(CN2CCN(c3cc(Cl)nc(Cl)n3)CC2)cc1 [Example 89, N-(4-((4-(2,6-Dichloropyrimidin-4-yl)piperazin-1-yl)methyl)phenylmethyl)acetamide]	165 to 166 °C		
CC(=O)NC(C)(C)c1ccc(CN2CCN(c3nccs3)CC2)cc1 [Example 94, N-(1-Methyl-1-(4-((4-(thiazol-2-yl)piperazin-1-yl)methyl)phenyl)ethyl)acetamide]	118 to 120 °C		
CC(=O)NC(C)(C)c1ccc(CN2CCN(c3ncccn3)CC2)cc1 [Example 95, N-(1-Methyl-1-(4-((4-(pyrimidin-2-yl)piperazin-1-yl)methyl)phenyl)ethyl)acetamide]	137 to 138 °C		
CC(=O)NCc1ccc(CN2CCN(c3nccc(Cl)n3)CC2)cc1 [Example 97, N-(4-((4-(4-chloropyrimidin-2-yl)piperazin-1-yl)methyl)phenylmethyl)acetamide]	122 to 124 °C		
CC(=O)NC(C)c1ccc(CN2CCN(c3ccccn3)CC2)cc1 (centres unmarked) [Example 104, N-(1-(4-((4-(Pyridin-2-yl)piperazin-1-yl)methyl)phenyl)ethyl)acetamide]	120 to 121 °C		
COc1ccnc(N2CCN(Cc3ccc(C(C)NC(C)=O)cc3)CC2)n1 (centres unmarked) [Example 107, N-(1-(4-((4-(4-Methoxypyrimidin-2-yl)piperazin-1-yl)methyl)phenyl)ethyl)acetamide]	113 to 115 °C		
CC(=O)NCc1ccc(CN2CCN(c3nc(N(C)C)cc(N(C)C)n3)CC2)cc1 [Example 109, N-(4-((4-(4,6-bis(Dimethylamino)-pyrimidin-2-yl)piperazin-1-yl)methyl)phenylmethyl)acetamide]	189 to 190 °C (dec.)		
COc1cc(N(C)C)nc(N2CCN(Cc3ccc(CNC(C)=O)cc3)CC2)n1 [Example 110, N-(4-((4-(4-Dimethylamino-6-methoxypyrimidin-2-yl)piperazin-1-yl)methyl)phenylmethyl)acetamide]	115 to 118 °C		
CC(=O)NCc1ccc(CN2CCN(c3ncc(Cl)s3)CC2)cc1 [Example 112, N-(4-((4-(5-Chlorothiazol-2-yl)piperazin-1-yl)methyl)phenylmethyl)acetamide]	142 to 145 °C (dec.)		
CC(=O)NC1(c2ccc(CN3CCN(c4cccc(F)n4)CC3)cc2)CC1 [Example 117, N-(1-(4-((4-(6-Fluoropyridin-2-yl)piperazin-1-yl)methyl)phenyl)cyclopropyl)acetamide]	135 to 136 °C		
CC(=O)NC1(c2ccc(CN3CCN(c4ccccn4)CC3)cc2)CC1 [Example 118, N-(1-(4-((4-(Pyridin-2-yl)piperazin-1-yl)methyl)phenyl)cyclopropyl)acetamide]	145 to 147 °C		

The next lines start with results.

melting point	SMILES	IL-10 production (%) (IL-10 production)	TNF-α production (%) (TNF-α production)
124 to 126 °C	CC(=O)NC(C)c1ccc(CN2CCN(c3ncccn3)CC2)cc1 (centres unmarked) [Example 69, N-(1-(4-((4-(Pyrimidin-2-yl)piperazin-1-yl)methyl)phenyl)ethyl)acetamide]		
124 to 125 °C	CC(=O)NC1(c2ccc(C(C)N3CCN(c4ncccn4)CC3)cc2)CC1 (centres unmarked) [Example 70, N-(1-(4-(1-(4-(Pyrimidin-2-yl)piperazin-1-yl)ethyl)phenyl)cyclopropyl)acetamide]		
145 to 146 °C	CC(=O)NC1(c2ccc(CN3CCN(c4ncccn4)CC3)cc2)CC1 [Example 71, N-(1-(4-((4-(Pyrimidin-2-yl)piperazin-1-yl)methyl)phenyl)cyclopropyl)acetamide]		
70 to 72 °C	NCc1ccc(CN2CCN(c3ncccn3)CC2)cc1 [Example 74, 2-(4-(4-(Aminomethyl)phenylmethyl)-piperazin-1-yl)pyrimidine]		
128 to 129 °C	CC(=O)NCc1ccc(CN2CCN(c3nc(F)cc(F)n3)CC2)cc1 [Example 78, N-(4-((4-(4,6-Difluoropyrimidin-2-yl)piperazin-1-yl)methyl)phenylmethyl)acetamide]		
127 to 128 °C	CC(=O)NCc1ccc(CN2CCN(c3cc(F)nc(F)n3)CC2)cc1 [Example 79, N-(4-((4-(2,6-Difluoropyrimidin-4-yl)piperazin-1-yl)methyl)phenylmethyl)acetamide]		
139 to 140 °C	CC(=O)NCc1ccc(CN2CCN(c3nc(Cl)cc(Cl)n3)CC2)cc1 [Example 80, N-(4-((4-(4,6-Dichloropyrimidin-2-yl)piperazin-1-yl)methyl)phenylmethyl)acetamide]		
155 to 156 °C	CC(=O)NCc1ccc(CN2CCN(c3ccc(Cl)cn3)CC2)cc1 [Example 86, N-(4-((4-(5-Chloropyridin-2-yl)piperazin-1-yl)methyl)phenylmethyl)acetamide]		
127 to 128 °C	CC(=O)NCc1ccc(CN2CCN(c3nc(C)cc(C)n3)CC2)cc1 [Example 93, N-(4-((4-(4,6-Dimethylpyrimidin-2-yl)piperazin-1-yl)methyl)phenylmethyl)acetamide]		
199 to 202 °C	COc1cc(OC)nc(N2CCN(Cc3ccc(C(C)(C)NC(C)=O)cc3)CC2)n1 [Example 96, N-(1-(4-((4-(4,6-Dimethoxypyrimidin-2-yl)piperazin-1-yl)methyl)phenyl)-1-methylethyl)acetamide]		
132 to 133 °C	CC(=O)NCc1ccc(CN2CCN(c3ccnc(Cl)n3)CC2)cc1 [Example 97, N-(4-((4-(2-Chloropyrimidin-4-yl)piperazin-1-yl)methyl)phenylmethyl)acetamide]		
152 to 155 °C	CC(=O)NCc1ccc(CN2CCN(c3nccc(N(C)C)n3)CC2)cc1 [Example 99, N-(4-((4-(4-(N,N-Dimethylamino)pyrimidin-2-yl)piperazin-1-yl)methyl)phenylmethyl)acetamide]		
184 to 185 °C	CC(=O)NC1(c2ccc(CN3CCN(c4nccs4)CC3)cc2)CC1 [Example 100, N-(1-(4-((4-(Thiazol-2-yl)piperazin-1-yl)methyl)phenyl)cyclopropyl)acetamide]		
136 to 137 °C	CC(=O)NC(C)c1ccc(CN2CCN(c3nccs3)CC2)cc1 (centres unmarked) [Example 101, N-(1-(4-((4-(Thiazol-2-yl)piperazin-1-yl)methyl)phenyl)ethyl)acetamide]		
109 to 111 °C	CC(=O)NC(C)c1ccc(CN2CCN(c3cccc(F)n3)CC2)cc1 (centres unmarked) [Example 102, N-(1-(4-((4-(6-Fluoropyridin-2-yl)piperazin-1-yl)methyl)phenyl)ethyl)acetamide]		
129 to 130 °C	CC(=O)NC(C)(C)c1ccc(CN2CCN(c3ccccn3)CC2)cc1 [Example 105, N-(1-Methyl-1-(4-((4-(pyridin-2-yl)piperazin-1-yl)methyl)phenyl)ethyl)acetamide]		
160 to 162 °C	COc1ccnc(N2CCN(Cc3ccc(C(C)(C)NC(C)=O)cc3)CC2)n1 [Example 106, N-(1-(4-((4-(4-Methoxypyrimidin-2-yl)piperazin-1-yl)methyl)phenyl)-1-methylethyl)acetamide]		
119 to 120 °C	CCOc1cc(OCC)nc(N2CCN(Cc3ccc(CNC(C)=O)cc3)CC2)n1 [Example 108, N-(4-((4-(4,6-Diethoxypyrimidin-2-yl)piperazin-1-yl)methyl)phenylmethyl)acetamide]		
160 to 163 °C	CC(=O)NCc1ccc(CN2CCN(c3ncc(Br)s3)CC2)cc1 [Example 111, N-(4-((4-(5-Bromothiazol-2-yl)piperazin-1-yl)methyl)phenylmethyl)acetamide]		
114 to 115 °C	CC(=O)N[C@@H](C)c1ccc(CN2CCN(c3ccc(F)cc3)CC2)cc1 [Example 121, (S)-N-(1-(4-((4-(4-Fluorophenyl)piperazin-1-yl)methyl)phenyl)ethyl)acetamide]		
114 to 115 °C	CC(=O)N[C@H](C)c1ccc(CN2CCN(c3ccc(F)cc3)CC2)cc1 [Example 122, (R)-N-(1-(4-((4-(4-fluorophenyl)piperazin-1-yl)methyl)phenyl)ethyl)acetamide]		

Source: US6455528B1, “Piperazine compounds and medicinal use thereof” (Mitsubishi Pharma Corporation, priority 1997, dated 2002)
